Assays:
[1] = system: S6 Ribosomal Protein phosphorylation Ser235/236 in TSC1 null mouse embryo fibroblast (MEF) cells; experiment: Reverse protein array assay, S6 Ribosomal Protein phosphorylation Ser235/236 in TSC1 null MEF cells; assay type: cell-based; conditions: 1 h, pS6 ribosomal protein Ser235/236, 60 minutes incubation, read-out: p-S6 IC50
In short: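 TSC1−/− MEFs, seeded and held ≥20 h at 37 °C/5% CO2, were exposed to 8-step serial compound dilutions (0.02% DMSO final; DMSO vehicle control) for 60 min at 37 °C. Cells were then lysed on ice for 10 min and lysates spotted onto reverse protein array chips.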

[2] = biological target: T1, PI3K alpha (Homo sapiens, UniProt P42336); experiment: PI3K alpha kinase assay (Kinase-Glo luminescence); assay type: biochemical
T1 construct: p85(iSH2) fusion partner (see partner chain) (N); His tag (C); made in house; host or cells: baculovirus; Tn5 (Trichoplusia ni) or TiniPro insect cells
T1 sequence (P42336 with tags, fused parts or gaps limits assumed): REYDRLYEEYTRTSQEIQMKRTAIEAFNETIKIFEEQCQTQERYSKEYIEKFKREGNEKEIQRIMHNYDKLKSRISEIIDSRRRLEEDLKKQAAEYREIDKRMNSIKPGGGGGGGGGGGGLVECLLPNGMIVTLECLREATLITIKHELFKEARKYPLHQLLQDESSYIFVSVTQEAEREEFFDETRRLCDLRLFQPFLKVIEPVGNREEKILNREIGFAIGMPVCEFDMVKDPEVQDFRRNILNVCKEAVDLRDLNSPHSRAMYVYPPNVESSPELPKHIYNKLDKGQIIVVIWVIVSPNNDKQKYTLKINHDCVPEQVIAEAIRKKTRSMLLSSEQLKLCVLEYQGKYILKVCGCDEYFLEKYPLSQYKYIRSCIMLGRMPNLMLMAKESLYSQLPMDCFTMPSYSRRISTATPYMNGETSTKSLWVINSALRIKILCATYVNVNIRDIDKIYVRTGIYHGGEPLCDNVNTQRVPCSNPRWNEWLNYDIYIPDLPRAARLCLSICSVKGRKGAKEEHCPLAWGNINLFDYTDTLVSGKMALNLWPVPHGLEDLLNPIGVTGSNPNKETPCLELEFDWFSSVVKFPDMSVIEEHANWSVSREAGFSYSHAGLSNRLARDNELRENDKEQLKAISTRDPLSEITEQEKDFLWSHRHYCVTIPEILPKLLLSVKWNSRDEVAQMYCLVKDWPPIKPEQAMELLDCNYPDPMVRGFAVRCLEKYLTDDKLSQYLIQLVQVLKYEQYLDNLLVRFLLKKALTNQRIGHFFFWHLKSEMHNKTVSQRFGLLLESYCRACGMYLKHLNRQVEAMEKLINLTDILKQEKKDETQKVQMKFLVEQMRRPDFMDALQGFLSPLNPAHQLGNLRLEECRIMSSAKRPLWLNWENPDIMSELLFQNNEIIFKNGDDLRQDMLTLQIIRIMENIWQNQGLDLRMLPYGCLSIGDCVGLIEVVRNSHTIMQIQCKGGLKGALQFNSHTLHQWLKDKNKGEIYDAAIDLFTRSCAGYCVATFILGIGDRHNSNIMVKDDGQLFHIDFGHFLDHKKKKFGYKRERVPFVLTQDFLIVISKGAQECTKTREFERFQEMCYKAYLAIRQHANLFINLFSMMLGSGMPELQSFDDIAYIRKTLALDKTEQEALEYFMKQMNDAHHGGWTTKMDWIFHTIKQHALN
In short: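 Enzyme 10 nM PI3Kα EMV B1075; ATP 1 μM; PI 10 μg/mL; Tris-HCl pH 7.5 10 mM, MgCl2 3 mM, NaCl 50 mM, CHAPS 0.05%, DTT 1 mM; 60 min RT; Kinase-Glo luminescence; 4-parameter IC50 fit, 8 concentrations, single points.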

[3] = biological target: T2, mTOR (Homo sapiens, UniProt P42345); experiment: Biochemical assay for m-TOR by TR-FRET; conditions: 8 μM ATP, 400 nM GFP-4EBP1, 0.5 nM mTOR
T2 construct: purchased Invitrogen Corporation (Carlsbad/CA, USA) PV4753
T2 sequence (P42345 1360-2549 limits assumed): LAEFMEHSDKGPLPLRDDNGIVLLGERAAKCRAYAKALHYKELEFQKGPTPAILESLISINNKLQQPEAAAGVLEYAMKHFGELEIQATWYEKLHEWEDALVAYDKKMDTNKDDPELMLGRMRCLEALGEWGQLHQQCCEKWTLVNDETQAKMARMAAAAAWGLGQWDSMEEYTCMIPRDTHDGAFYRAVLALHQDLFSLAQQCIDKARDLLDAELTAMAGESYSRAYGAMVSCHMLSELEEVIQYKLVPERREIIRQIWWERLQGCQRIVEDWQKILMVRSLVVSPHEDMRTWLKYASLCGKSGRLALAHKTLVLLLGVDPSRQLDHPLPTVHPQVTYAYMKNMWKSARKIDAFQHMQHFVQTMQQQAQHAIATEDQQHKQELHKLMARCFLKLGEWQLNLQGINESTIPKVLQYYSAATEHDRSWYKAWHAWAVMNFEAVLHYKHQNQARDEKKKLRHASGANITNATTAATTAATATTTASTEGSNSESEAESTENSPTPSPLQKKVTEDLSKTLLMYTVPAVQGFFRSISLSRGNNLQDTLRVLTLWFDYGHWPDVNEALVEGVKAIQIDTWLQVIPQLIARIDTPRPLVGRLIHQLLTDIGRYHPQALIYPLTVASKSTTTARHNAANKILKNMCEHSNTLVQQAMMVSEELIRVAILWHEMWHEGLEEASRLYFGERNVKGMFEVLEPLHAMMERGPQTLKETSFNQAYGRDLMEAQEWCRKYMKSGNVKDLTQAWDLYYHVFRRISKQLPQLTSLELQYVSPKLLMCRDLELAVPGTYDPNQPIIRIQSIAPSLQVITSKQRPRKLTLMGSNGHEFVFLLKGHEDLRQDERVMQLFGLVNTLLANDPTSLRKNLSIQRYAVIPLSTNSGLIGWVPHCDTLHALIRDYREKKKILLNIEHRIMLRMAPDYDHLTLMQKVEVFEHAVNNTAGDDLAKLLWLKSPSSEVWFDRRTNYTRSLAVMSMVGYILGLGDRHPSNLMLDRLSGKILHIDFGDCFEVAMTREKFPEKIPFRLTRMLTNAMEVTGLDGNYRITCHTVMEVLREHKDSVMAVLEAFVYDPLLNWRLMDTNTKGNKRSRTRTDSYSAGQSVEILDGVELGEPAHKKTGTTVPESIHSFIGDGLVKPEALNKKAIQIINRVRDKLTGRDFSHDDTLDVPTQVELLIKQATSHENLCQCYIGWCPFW
In short: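 Enzyme 0.5 nM, GFP-4EBP1 400 nM, ATP 8 μM (all final); 50 mM HEPES pH 7.5, 10 mM MnCl2, 1 mM DTT; rt. Detection: Tb-α-p4EBP1 [pT46] 0.5 nM in EDTA, TR-FRET, 15 min. Reference compound on every plate, 16-point duplicate dilutions.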

Cc1nn(C)cc1-n1c(=O)n(C)c2cnc3ccc(-c4cccc(S(C)(=O)=O)c4)cc3c21 [Example 40, 1-(1,3-Dimethyl-1H-pyrazol-4-yl)-8-(3-methanesulfonyl-phenyl)-3-methyl-1,3-dihydro-imidazo[4,5-c]quinolin-2-one]
IC50 [1]: 0.036 µM | IC50 [2]: 0.02 µM | IC50 [3]: 0.071 µM

Cc1nn(C)cc1-n1c(=O)n(C)c2cnc3ccc(-c4ccc(C(N)=O)cc4)cc3c21 [Example 41, 4-[1-(1,3-Dimethyl-1H-pyrazol-4-yl)-3-methyl-2-oxo-2,3-dihydro-1H-imidazo[4,5-c]quinolin-8-yl]-benzamide]
IC50 [1]: 0.023 µM | IC50 [2]: < 0.009 µM | IC50 [3]: 0.005 µM

Cc1nn(C)cc1-n1c(=O)n(C)c2cnc3ccc(-c4cccc(C(N)=O)c4)cc3c21 [Example 46, 3-[1-(1,3-Dimethyl-1H-pyrazol-4-yl)-3-methyl-2-oxo-2,3-dihydro-1H-imidazo[4,5-c]quinolin-8-yl]-benzamide]
IC50 [1]: 0.098 µM | IC50 [2]: 0.05 µM | IC50 [3]: 0.231 µM

Cc1nn(C)cc1-n1c(=O)n(C)c2cnc3ccc(-c4ccc5c(c4)CC(=O)N5)cc3c21 [Example 49, 1-(1,3-Dimethyl-1H-pyrazol-4-yl)-3-methyl-8-(2-oxo-2,3-dihydro-1H-indol-5-yl)-1,3-dihydro-imidazo[4,5-c]quinolin-2-one]
IC50 [1]: 0.217 µM | IC50 [2]: 0.047 µM | IC50 [3]: 0.046 µM

Cc1nn(C)cc1-n1c(=O)n(C)c2cnc3ccc(-c4cccc(S(=O)(=O)N(C)C)c4)cc3c21 [Example 53.1, 3-[1-(1,3-Dimethyl-1H-pyrazol-4-yl)-3-methyl-2-oxo-2,3-dihydro-1H-imidazo[4,5-c]quinolin-8-yl]-N,N-dimethyl-benzenesulfonamide]
IC50 [1]: 0.043 µM | IC50 [2]: 0.016 µM | IC50 [3]: 0.107 µM

COCc1cncc(-c2ccc3ncc4c(c3c2)n(-c2cn(C)nc2C)c(=O)n4C)c1 [Example 54.1, 1-(1,3-Dimethyl-1H-pyrazol-4-yl)-8-(5-methoxymethyl-pyridin-3-yl)-3-methyl-1,3-dihydro-imidazo[4,5-c]quinolin-2-one]
IC50 [1]: 0.005 µM | IC50 [2]: 0.017 µM | IC50 [3]: 0.079 µM

CCOc1cncc(-c2ccc3ncc4c(c3c2)n(-c2cn(C)nc2Cl)c(=O)n4C)c1 [Example 56.4, 1-(3-Chloro-1-methyl-1H-pyrazol-4-yl)-8-(5-ethoxy-pyridin-3-yl)-3-methyl-1,3-dihydro-imidazo[4,5-c]quinolin-2-one]
IC50 [1]: 0.001 µM | IC50 [2]: 0.005 µM | IC50 [3]: 0.016 µM

Cc1nn(C)cc1-n1c(=O)n(C)c2cnc3ccc(-c4cncc(OC(C)C)c4)cc3c21 [Example 58.1, 1-(1,3-Dimethyl-1H-pyrazol-4-yl)-8-(5-isopropoxy-pyridin-3-yl)-3-methyl-1,3-dihydro-imidazo[4,5-c]quinolin-2-one]
IC50 [1]: 0.003 µM | IC50 [2]: 0.006 µM | IC50 [3]: 0.014 µM

CCN(C)C(=O)Cn1cc(-n2c(=O)n(C)c3cnc4ccc(-c5cncc(OC(C)C)c5)cc4c32)c(C)n1 [Example 58.5, N-Ethyl-2-{4-[8-(5-isopropoxy-pyridin-3-yl)-3-methyl-2-oxo-2,3-dihydro-imidazo[4,5-c]quinolin-1-yl]-3-methyl-pyrazol-1-yl}-N-methyl-acetamide]
IC50 [1]: 0.003 µM | IC50 [2]: 0.007 µM | IC50 [3]: 0.023 µM

Cc1nn(CC(=O)N(C)C)c(C)c1-n1c(=O)n(C)c2cnc3ccc(-c4cncc(OC5CCC5)c4)cc3c21 [Example 60.2, 2-{4-[8-(5-Cyclobutoxy-pyridin-3-yl)-3-methyl-2-oxo-2,3-dihydro-imidazo[4,5-c]quinolin-1-yl]-3,5-dimethyl-pyrazol-1-yl}-N,N-dimethyl-acetamide]
IC50 [1]: 0.011 µM | IC50 [2]: 0.315 µM | IC50 [3]: 0.703 µM

COc1ncc(-c2ccc3ncc4c(c3c2)n(-c2cn(C)nc2C)c(=O)n4C)cc1NC(C)=O [Example 64, N-{5-[1-(1,3-Dimethyl-1H-pyrazol-4-yl)-3-methyl-2-oxo-2,3-dihydro-1H-imidazo[4,5-c]quinolin-8-yl]-2-methoxy-pyridin-3-yl}-acetamide]
IC50 [1]: 0.005 µM | IC50 [2]: 0.087 µM | IC50 [3]: 0.03 µM

Cc1nn(C)cc1-n1c(=O)n(C)c2cnc3ccc(-c4cnc5c(c4)nnn5C)cc3c21 [Example 72, 1-(1,3-Dimethyl-1H-pyrazol-4-yl)-3-methyl-8-(3-methyl-3H-[1,2,3]triazolo[4,5-b]pyridin-6-yl)-1,3-dihydro-imidazo[4,5-c]quinolin-2-one]
IC50 [1]: 0.058 µM | IC50 [2]: 0.029 µM | IC50 [3]: 0.179 µM

Cc1nn(C)cc1-n1c(=O)n(C)c2cnc3ccc(-c4cnc5c(c4)ncn5C)cc3c21 [Example 74, 1-(1,3-Dimethyl-1H-pyrazol-4-yl)-3-methyl-8-(3-methyl-3H-imidazo[4,5-b]pyridin-6-yl)-1,3-dihydro-imidazo[4,5-c]quinolin-2-one]
IC50 [1]: 0.023 µM | IC50 [2]: 0.02 µM | IC50 [3]: 0.03 µM

Cc1nn(C)cc1-n1c(=O)n(C)c2cnc3ccc(-c4ccc(-n5cccn5)nc4)cc3c21 [Example 79, 1-(1,3-Dimethyl-1H-pyrazol-4-yl)-3-methyl-8-(6-pyrazol-1-yl-pyridin-3-yl)-1,3-dihydro-imidazo[4,5-c]quinolin-2-one]
IC50 [1]: 0.005 µM | IC50 [2]: 0.048 µM | IC50 [3]: < 0.003 µM

Cc1ncc(-c2ccc3ncc4c(c3c2)n(-c2cn(C)nc2C)c(=O)n4C)cc1OC(C)C [Example 84.1, 1-(1,3-Dimethyl-1H-pyrazol-4-yl)-8-(5-isopropoxy-6-methyl-pyridin-3-yl)-3-methyl-1,3-dihydro-imidazo[4,5-c]quinolin-2-one]
IC50 [1]: 0.002 µM | IC50 [2]: 0.006 µM | IC50 [3]: 0.004 µM

CCNc1cc(-c2ccc3ncc4c(c3c2)n(-c2c(C)nn(CC(=O)N(C)C)c2C)c(=O)n4C)cnc1C [Example 87.5, 2-{4-[8-(5-Ethylamino-6-methyl-pyridin-3-yl)-3-methyl-2-oxo-2,3-dihydro-imidazo[4,5-c]quinolin-1-yl]-3,5-dimethyl-pyrazol-1-yl}-N,N-dimethyl-acetamide]
IC50 [1]: 0.18 µM | IC50 [2]: 0.043 µM | IC50 [3]: 0.029 µM

CCNc1cc(-c2ccc3ncc4c(c3c2)n(-c2c(C)nn(CCOC)c2C)c(=O)n4C)cnc1OC [Example 90.2, 8-(5-Ethylamino-6-methoxy-pyridin-3-yl)-1-[1-(2-methoxy-ethyl)-3,5-dimethyl-1H-pyrazol-4-yl]-3-methyl-1,3-dihydro-imidazo[4,5-c]quinolin-2-one]
IC50 [1]: 0.035 µM | IC50 [2]: 0.044 µM | IC50 [3]: 0.129 µM

Cc1nn(C)cc1-n1c(=O)n(C)c2cnc3ccc(-c4cnc5cc[nH]c5c4)cc3c21 [Example 99, 1-(1,3-Dimethyl-1H-pyrazol-4-yl)-3-methyl-8-(1H-pyrrolo[3,2-b]pyridin-6-yl)-1,3-dihydro-imidazo[4,5-c]quinolin-2-one]
IC50 [1]: 0.004 µM | IC50 [2]: 0.016 µM | IC50 [3]: < 0.003 µM

Cc1nn(C)cc1-n1c(=O)n(C)c2cnc3ccc(-c4ccc(OCCO)nc4)cc3c21 [Example 107, 1-(1,3-Dimethyl-1H-pyrazol-4-yl)-8-[6-(2-hydroxy-ethoxy)-pyridin-3-yl]-3-methyl-1,3-dihydro-imidazo[4,5-c]quinolin-2-one]
IC50 [1]: 0.046 µM | IC50 [2]: 0.017 µM | IC50 [3]: 0.06 µM

CCOc1ccc(-c2ccc3ncc4[nH]c(=O)n(-c5cn(C)nc5C)c4c3c2)cn1 [Example 110, 1-(1,3-Dimethyl-1H-pyrazol-4-yl)-8-(6-ethoxy-pyridin-3-yl)-1,3-dihydro-imidazo[4,5-c]quinolin-2-one]
IC50 [1]: 0.078 µM | IC50 [2]: 0.005 µM | IC50 [3]: 0.014 µM

CNc1ccc(-c2ccc3ncc4c(c3c2)n(-c2cn(C)nc2C)c(=O)n4C)cn1 [Example 118.2, 1-(1,3-Dimethyl-1H-pyrazol-4-yl)-3-methyl-8-(6-methylamino-pyridin-3-yl)-1,3-dihydro-imidazo[4,5-c]quinolin-2-one]
IC50 [1]: 0.001 µM | IC50 [2]: 0.011 µM | IC50 [3]: 0.004 µM

CCn1cc(-n2c(=O)n(C)c3cnc4ccc(-c5ccc(NC)nc5)cc4c32)c(C)n1 [Example 118.4, 1-(1-Ethyl-3-methyl-1H-pyrazol-4-yl)-3-methyl-8-(6-methylamino-pyridin-3-yl)-1,3-dihydro-imidazo[4,5-c]quinolin-2-one]
IC50 [1]: 0.002 µM | IC50 [2]: 0.02 µM | IC50 [3]: 0.004 µM

COc1ncc(-c2ccc3ncc4c(c3c2)n(-c2cn(C)nc2C)c(=O)n4C)cc1C(N)=O [Example 125.2, 5-[1-(1,3-Dimethyl-1H-pyrazol-4-yl)-3-methyl-2-oxo-2,3-dihydro-1H-imidazo[4,5-c]quinolin-8-yl]-2-methoxy-nicotinamide]
IC50 [1]: 0.005 µM | IC50 [2]: 0.05 µM | IC50 [3]: 0.01 µM

COc1ncc(-c2ccc3ncc4c(c3c2)n(-c2cn(C)nc2C)c(=O)n4C)cc1C#N [Example 132, 5-[1-(1,3-Dimethyl-1H-pyrazol-4-yl)-3-methyl-2-oxo-2,3-dihydro-1H-imidazo[4,5-c]quinolin-8-yl]-2-methoxy-nicotinonitrile]
IC50 [1]: 0.003 µM | IC50 [2]: 0.138 µM | IC50 [3]: 0.934 µM

— patent publication US20140005163A1 (NOVARTIS AG, priority 2010, published 2014)
